# Legend:
# [1] = test system: cAMP- and Ca++-sensitive basolateral K+ channels of T84 cells; assay: Basolateral K+ conductance in T84 monolayers permeabilized apically with amphotericin B; format: cell-based, human; details: for Time course of K+ transport after treatment with forskolin and carbachol: forskolin 10 μM (cAMP agonist), carbachol 100 μM (Ca++ agonist)
# Description: Selective mebrane Permeabilization and Measurement of Potassium Conductance of the Basolateral Membrane. The basolateral potassium conductance was measured using the technique developed by Dawson and co-workers. A potassium gradient (mucosal to serosal) was first established across the monolayer using asymmetric mucosal and serosal buffers containing K^+ as the sole permeant ion. The addition of amphotericin B (20 μM) to the mucosal reservoir forms conductive pores in the apical membrane, and thus removes all resistance to transepithelial potassium movement across this membrane. Thus, under the conditions of the experiment, in which the monolayer is short circuited (i.e., voltage-clamped at zero potential) and the transepithehal potassium gradient is constant, the amphotericin-dependent Isc becomes a measure of the rate of the transepithelial potassium flux across basolateral membranes. Changes in short circuit current (Isc), then represent changes in basolateral K^+ conductances (gK). Isc and K^+ conductances were measured using calomel electrodes, 3M KCI-agar bridges, and a voltage clamp (University of Iowa, Iowa City). To generate a voltage-current channel relationships, currents were elicited by 1 sec test potentials from −80 to +80 in 10 mV increments in the asymmetrical high K^+ gluconate solution. Calculation of basolateral membrane K^+ permeability: Membrane permeabilities were calculated according to the formula:
# ^pK=(cm/s)=^JK(mM/cm^2·s)/Δ[K^+](mM/cm^3)
# where Δ [K^+] is equal to the difference in K^+ concentration (135 mM) between the asymmetric apical and basolateral bathing solutions. Maximal Isc values were converted into K^+ fluxes by dividing by the Faraday constant F (96,500 coulombs/mol) as previously described (Huflejt et al., J. Clin. Invest. 93: 1900-1910 (1994)).
# Basolateral K+ transport was examined in T84 monolayers permeabilized apically by pretreatment with amphotericin B. Apical and basolateral buffers contained K+ as the sole permeant ion. All studies were performed with a 135 mM basolaterally directed K+ gradient. This method has been utilized previously to examine both Cl− and K+ transport in T84 cells and HT29-Cl0.16E cells. Briefly, ion conductances in the luminal or basolateral membranes of confluent T84 cell monolayers can be assessed separately by selectively permeabilizing the apical or basolateral membrane using the ionophore amphotericin B. This artificially removes all electrical resistance to ion transport across the plasma membrane containing pores formed by amphotericin B. As a result, the intact contralateral plasma membrane becomes rate limiting for transepithelial ion transport. Agonist-dependent changes in ion conductances can be assessed directly either as transepithelial short circuit current (Isc) in the presence of established ion gradients, or as transepithelial conductance (G) in the presence of established transepithelial potentials.
# T84 cells = assay: Electrogenic Cl- secretion (short circuit current, Isc) in confluent T84 monolayers; format: cell-based, human; details: for Inhibition of cAMP and Ca++ elicited Cl- secretion: comparison of compounds tested
# [2] = test system: basolateral NaK2Cl cotransporters of T84 cells; assay: Bumetanide-sensitive 86Rb uptake in T84 monolayers; format: cell-based, human
# Description: Confluent monolayers on 5 cm^2 Transwell inserts were incubated for 30 minutes in HBSS at 37° C. […] Monolayers were cut from their inserts, placed into scintillation vials, and counted using standard methods.
# rabbit colonic mucosa = assay: Ussing chamber studies using rabbit colonic mucosa; details: 30 μM; forskolin 10 μM
# Description: 4 male, New Zealand rabbits (2.5 kg) were anesthetized by an intravenous injection of pentobarbital (0.5 ml/kg). A 15 cm length of distal colon was removed and opened longitudinally. […] The volume of fluid on each side of the mucosa was 7 ml. Potential difference and Isc were monitored continuously and registered every 10 minutes.
# [3] = test system: basolateral K+ channels of T84 cells; assay: 86Rb efflux from T84 monolayers as indicator of basolateral K+ channel activity; format: cell-based, human
# Description: J. Physiol (Cell Physiol. 28):[…]-[…] (1990). […] One ml samples were obtained and replaced from the basolateral reservoir. […] Finally, the cell monolayer was rinsed, cut with its support from the polystyrene ring, and the residual cell-associated radioactivity was determined. Monolayers were maintained at 37° C. in room air throughout the study. ^86Rb was counted by scintillation counting and normalized to percent total uptake as previously described ([…], et al, Am. J. Physiol. (Cell Physiol. 28):[…]-[…] (1990).
# [4] = test system: cholera toxin-induced intestinal fluid secretion; format: in vivo, Balb/C mice
# [5] = test system: apical membrane Cl- channels of T84 cells; assay: Apical Cl- conductance in T84 monolayers permeabilized basolaterally with amphotericin B; format: cell-based, human; details: forskolin 10 μM; symmetrical Cl- 142 mM
# [6] = test system: apical membrane Cl- channels of T84 cells; assay: 125I efflux from T84 monolayers as indicator of apical Cl- channel activity; format: cell-based, human
# Description: J. Physiol. (Cell Physiol. 28):[…]-[…] (1990). […] After washing twice in fresh HBSS, 0.5 ml samples were obtained every two min from the apical reservoir and replaced with fresh HBSS. […] Finally, the cell monolayer was rinsed, cut with its support from the polystyrene ring, and the residual cell-associated radioactivity was determined. Monolayers were maintained at 37° C. in room air throughout the study. ^125I was counted by gamma counting and normalized to percent total uptake as previously described ([…], et al, Am. J. Physiol. (Cell Physiol 28):[…]-[…] (1990).
# [7] = 33 μM during final 30 min of preincubation
molecule,measurement,setting,value
[Ba+2].[Cl-].[Cl-] [BaCl2],Effect on K+ transport induced by subsequent addition of carbachol,"[1]; carbachol 100 μM, same monolayers, BaCl2 3 mM",no detectable effect
same,Inhibition of the cAMP-sensitive IK elicited by forskolin,"[1]; forskolin 10 μM, BaCl2 3 mM in basolateral reservoirs",greater than 70%
same,Cl- secretory response (Isc as percentage of control) to the Ca++-dependent agonist carbachol,T84 cells,no apparent affect
same,Cl- secretory response (Isc as percentage of control) to the cAMP mediated agonist VIP,T84 cells,strongly inhibited
OC(c1ccccc1)(c1ccccc1)c1ccccc1Cl [2-chlorophenyl-bis-phenyl methanol],Time course of K+ transport after treatment with forskolin and carbachol,[1],Nearly identical results
same,Inhibition of cAMP and Ca++ elicited Cl- secretion,T84 cells,effective at inhibiting chloride secretion
Clc1ccccc1C(c1ccccc1)(c1ccccc1)n1ccnc1 [clotrimazole],Reduction of the total amount of 86Rb uptake,"[2]; 33 μM for 30 min, VIP, mean±SEM, n=6",53.6±5.8%
same,Effect on the fractional component of 86Rb uptake that was bumetanide-sensitive,"[2]; 33 μM for 30 min, bumetanide 10 μM",no effect
same,Bumetanide-sensitive fraction of 86Rb uptake,"[2]; 0.5 h, 33 µM",88+3.2 % total uptake
same,Time course of forskolin induced Isc,rabbit colonic mucosa,inhibited strongly
same,86Rb loading of the cells,[3]; [7],did not alter
same,Reduction of the rate constant for VIP-stimulated 86Rb efflux,"[3]; 33 μM, VIP 5 μM",87%
same,Baseline and Ca++ stimulated 86RB efflux,"[3]; T84 cells in the presence of VIP or thapsigargin, compared to cells not treated, FIG. 2",significantly inhibited
same,Rate constant for VIP-stimulated 86Rb efflux,"[3]; monolayers treated with clotrimazole 33 μM, VIP 5 μM, n=2 in triplicate, untreated 0.0465",0.0062 % uptake/minute
same,Rate constant for thapsigargin-stimulated 86Rb efflux,"[3]; monolayers treated with clotrimazole 33 μM, thapsigargin 5 μM, n=2, untreated 0.048",0.011 % uptake/minute
same,Reduction of intestinal fluid secretion induced by cholera toxin,[4]; 5 hours,86%
same,Intestinal secretion in the absence of cholera toxin,"[4]; mouse, in vivo",no effect
same,Time course of K+ transport after treatment with forskolin and carbachol,[1],significantly inhibited
same,Forskolin- or thapsigargin-stimulated Cl- conductances,[5],no detectable effect
same,125I loading of the cells,[6]; [7],did not alter
same,Time course of 125I efflux from monolayers treated with VIP,"[6]; 33 μM pretreatment, VIP",little or no effect
same,Rate constant for 125I efflux,"[6]; monolayers treated with clotrimazole (33 μM), VIP, n=2 in duplicate, untreated 0.0645",0.0637 % uptake/minute
same,Cl- secretory response (Isc as percentage of control) to the Ca++-dependent agonist carbachol,T84 cells,inhibited
same,Cl- secretory response (Isc as percentage of control) to the cAMP mediated agonist VIP,T84 cells,inhibited
same,Secretory response to agonists of sequential steps in the cAMP signalling cascade,"T84 cells; 33 μM preincubation, 5 μM VIP, 10 μM forskolin or 3 mM 8Br-cAMP",inhibited
same,Cl- secretory response to Ca++-dependent agonists,"T84 cells; 33 μM pretreatment, carbachol 100 μM, thapsigargin 5 μM or ionomycin 10 μM",inhibited strongly
same,IC50,"T84 cells; Homo sapiens, T84, read-out: IC50 for inhibiting the secretory response to E. Coli heat-stabile toxin",15 µM
same,Reversibility of inhibition of Cl- secretion,"T84 cells; after 60 min recovery in the presence of 0.01 mg/ml bovine serum albumin, n=4",96±2%
same,Apparent potency of inhibition at a fixed time point by side of application,T84 cells; basolateral versus apical application,greater when applied basolaterally than apically
same,Inhibition of cAMP and Ca++ elicited Cl- secretion,T84 cells,most potent inhibitor tested
same,Potentiation of the Cl- secretory responses to either agonist at low doses,"T84 cells; low doses (=10^-7 or less), VIP or carbachol",5-10%
Clc1ccc(COC(Cn2ccnc2)c2ccc(Cl)cc2Cl)c(Cl)c1 (centres unmarked) [miconazole],Inhibition of cAMP and Ca++ elicited Cl- secretion,T84 cells,effective at inhibiting chloride secretion
CC(=O)N1CCN(c2ccc(OCC3COC(Cn4ccnc4)(c4ccc(Cl)cc4Cl)O3)cc2)CC1 (centres unmarked) [ketoconazole],Inhibition of cAMP and Ca++ elicited Cl- secretion,T84 cells,effective at inhibiting chloride secretion
charybdotoxin,Inhibition of the carbachol-induced Ca++ IK,"[1]; carbachol first, pretreatment with charybdotoxin 100 nM",50%
same,Effect on K+ transport induced by subsequent addition of forskolin,[1]; charybdotoxin 100 nM,no detectable effect
same,Cl- secretory response (Isc as percentage of control) to the Ca++-dependent agonist carbachol,T84 cells,strongly inhibited
same,Cl- secretory response (Isc as percentage of control) to the cAMP mediated agonist VIP,T84 cells,minimal affects
Clc1ccc(COC(Cn2ccnc2)c2ccc(Cl)cc2Cl)cc1 (centres unmarked) [econazole],Inhibition of cAMP and Ca++ elicited Cl- secretion,T84 cells,effective at inhibiting chloride secretion

# From US20020004519A1, “METHOD FOR REDUCING CHLORIDE SECETION BY INTESTINAL EPITHLIAL CELLS IN SITU” (priority 1998, published 2002)
